Assay results as given in the Deep4Chem optical property database.
Values belong to the compound of their own block, whether it stands above or below them.

Assay: photoluminescence quantum yield (fraction); solvent given as SMILES

SMILES: CCN(CC)c1ccc2ccc(=O)oc2c1
- photoluminescence quantum yield (in CC(C)=O): 0.55
- photoluminescence quantum yield (in CCCCCC): 0.85
- photoluminescence quantum yield (in CCCCCCC): 0.85
- photoluminescence quantum yield (in CCCCO): 0.47
- photoluminescence quantum yield (in CCCO): 0.52
- photoluminescence quantum yield (in CCO): 0.39
- photoluminescence quantum yield (in CCOCC): 0.8
- photoluminescence quantum yield (in CN(C)C=O): 0.56
- photoluminescence quantum yield (in CO): 0.27
- photoluminescence quantum yield (in Cc1ccccc1): 0.83
- photoluminescence quantum yield (in ClC(Cl)Cl): 0.62
- photoluminescence quantum yield (in ClCCl): 0.9
- photoluminescence quantum yield (in OCCO): 0.25
- photoluminescence quantum yield (in c1ccccc1): 0.83

SMILES: NNC(=O)NNN1C(=O)c2cc(S(=O)(=O)[O-])cc3c(N)c(S(=O)(=O)[O-])cc(c23)C1=O
- photoluminescence quantum yield (in C1COCCO1): 0.06
- photoluminescence quantum yield (in CC#N): 0.49
- photoluminescence quantum yield (in CC(C)=O): 0.29
- photoluminescence quantum yield (in CC(C)O): 0.62
- photoluminescence quantum yield (in CCCCCCCCO): 0.75
- photoluminescence quantum yield (in CCO): 0.54
- photoluminescence quantum yield (in CCOC(C)=O): 0.03
- photoluminescence quantum yield (in CO): 0.25
- photoluminescence quantum yield (in CS(C)=O): 0.59
- photoluminescence quantum yield (in O): 0.21
- photoluminescence quantum yield (in OCCO): 0.5
- photoluminescence quantum yield (in c1ccncc1): 0.26

SMILES: c1ccc(B2Nc3cc4c(cc3-c3sc5ccccc5c32)NB(c2ccccc2)c2c-4sc3ccccc23)cc1
- photoluminescence quantum yield (in ClCCl): 0.27

SMILES: Cc1ccccc1-c1c2cccc3c(-c4ccc(C(C)(C)C)cc4)cc4c(-c5ccccc5C)c5cccc6c(-c7ccc(C(C)(C)C)cc7)cc1c(c65)c4c32
- photoluminescence quantum yield (in ClCCl): 0.28

SMILES: CCCCCCCCC1(CCCCCCCC)c2cc(-c3ccc(C=C4C(=O)c5ccccc5C4=O)cc3)ccc2-c2ccc(-c3ccc(C=C4C(=O)c5ccccc5C4=O)cc3)cc21
- photoluminescence quantum yield (in C1CCOC1): 0.048
- photoluminescence quantum yield (in CC(C)=O): 0.116
- photoluminescence quantum yield (in CCCCCC): 0.007
- photoluminescence quantum yield (in CS(C)=O): 0.245
- photoluminescence quantum yield (in Cc1ccccc1): 0.011
- photoluminescence quantum yield (in ClC(Cl)Cl): 0.014

SMILES: Cc1ccc2c(c1)c1cc(C)ccc1n2-c1cccc(-n2c3ccc(C)cc3c3cc(C)ccc32)c1C#N
- photoluminescence quantum yield (in Cc1ccccc1): 0.34
- photoluminescence quantum yield (in O=P(c1ccccc1)(c1ccccc1)c1ccccc1Oc1ccccc1P(=O)(c1ccccc1)c1ccccc1): 0.66

SMILES: CCCCC1=Cc2c3ccc4cccc5ccc(c6cc(-c7ccc(N(c8ccccc8)c8ccccc8)cc7)n(c26)P1(=O)c1ccccc1)c3c45 (centres undefined)
- photoluminescence quantum yield (in C1CCCCC1): 0.56
- photoluminescence quantum yield (in C1CCOC1): 0.49
- photoluminescence quantum yield (in C1COCCO1): 0.61
- photoluminescence quantum yield (in CC#N): 0.39
- photoluminescence quantum yield (in CC(C)=O): 0.52
- photoluminescence quantum yield (in CO): 0.29
- photoluminescence quantum yield (in Cc1ccccc1): 0.61
- photoluminescence quantum yield (in ClC(Cl)Cl): 0.58
- photoluminescence quantum yield (in ClCCl): 0.62

SMILES: N#CC1=CC(c2ccccc2)=CC(C#N)=P1(c1ccccc1)c1ccccc1
- photoluminescence quantum yield (in ClC(Cl)Cl): 0.75

SMILES: Cn1c2nc(=O)[nH]c(=O)c-2nc2ccccc21
- photoluminescence quantum yield (in CC1CCCO1): 0.3

SMILES: CCCC1(CCC)c2ccccc2-c2ccc(-c3ccc4c(c3)C(CCC)(CCC)c3cc(-c5ccc6c(c5)C(CCC)(CCC)c5ccccc5-6)ccc3-4)cc21
- photoluminescence quantum yield (in C1CCCCC1): 0.91

SMILES: CN(C)c1ccc(/C=C/C=N/N=C/c2ccc3ccc4cccc5ccc2c3c45)cc1
- photoluminescence quantum yield (in CC#N): 0.032
- photoluminescence quantum yield (in CC(C)(C)O): 0.02
- photoluminescence quantum yield (in CC(C)=O): 0.01
- photoluminescence quantum yield (in CC(C)O): 0.015
- photoluminescence quantum yield (in CCCCO): 0.018
- photoluminescence quantum yield (in CO): 0.025
- photoluminescence quantum yield (in CS(C)=O): 0.044
- photoluminescence quantum yield (in ClC(Cl)Cl): 0.007
- photoluminescence quantum yield (in ClCCl): 0.008
- photoluminescence quantum yield (in O): 0.016

SMILES: CCCCCCCCCCCCN1C(=O)c2c(c3ccc4cc(-c5ccc(-c6ccccc6)cc5)c(OC)cc4c3c3c2ccc2cc(-c4ccc(-c5ccccc5)cc4)c(OC)cc23)C1=O
- photoluminescence quantum yield (in ClCCl): 0.17

SMILES: Cc1ccc(-c2ccc(-c3ccc(C)cc3)c(/C(=C(/c3ccccc3)c3cc(-c4ccc(C)cc4)ccc3-c3ccc(C)cc3)c3ccccc3)c2)cc1
- photoluminescence quantum yield (in C1CCOC1): 0.32

SMILES: O=P1(c2ccccc2)C(c2ccc(N(c3ccccc3)c3ccccc3)cc2)=Cc2cc3ccccc3cc21 (centres undefined)
- photoluminescence quantum yield (in ClCCl): 0.85

SMILES: CCCCC(CC)Cn1c2cc(C#N)ccc2c2ccc(C#N)cc21 (centres undefined)
- photoluminescence quantum yield (in ClCCl): 0.3

SMILES: N#CC=C(c1ccc(N2c3ccccc3Oc3ccccc32)cc1)c1ccc(N2c3ccccc3Oc3ccccc32)cc1
- photoluminescence quantum yield (in Cc1ccccc1): 0.371

SMILES: CCC1=C(C)C2=Cc3cscc3B(O)N2C1=O
- photoluminescence quantum yield (in CC#N): 0.97
- photoluminescence quantum yield (in CCCCCC): 0.18
- photoluminescence quantum yield (in CO): 0.35
- photoluminescence quantum yield (in CS(C)=O): 0.87
- photoluminescence quantum yield (in ClC(Cl)Cl): 0.2

SMILES: Cc1ccc(-c2cc(/C=C/c3ccc(N(c4ccccc4)c4ccccc4)cc3)c(-c3ccc(C)cc3)cc2/C=C/c2ccc(N(c3ccccc3)c3ccccc3)cc2)cc1
- photoluminescence quantum yield (in ClCCl): 0.74

SMILES: c1ccc(-c2nc(-c3ccccn3)[se]c2N(c2ccccc2)c2ccccc2)cc1
- photoluminescence quantum yield (in ClC(Cl)Cl): 0.113

Second part, the compound after the results:

- photoluminescence quantum yield (in CN(C)C=O): 0.11
SMILES: O=C([O-])c1ccc2cc3cc(C(=O)[O-])ccc3cc2c1

- photoluminescence quantum yield (in ClCCl): 0.23
SMILES: COc1ccc(N2c3sc4ccccc4c3Sc3c2sc2ccccc32)cc1

- photoluminescence quantum yield (in C1CCOC1): 0.65
- photoluminescence quantum yield (in C1COCCO1): 0.63
- photoluminescence quantum yield (in CC#N): 0.6
- photoluminescence quantum yield (in CC(C)O): 0.44
- photoluminescence quantum yield (in CCO): 0.36
- photoluminescence quantum yield (in CCOC(C)=O): 0.66
- photoluminescence quantum yield (in CN(C)C=O): 0.68
- photoluminescence quantum yield (in CO): 0.28
- photoluminescence quantum yield (in CS(C)=O): 0.7
- photoluminescence quantum yield (in O): 0.41
SMILES: NS(=O)(=O)c1ccc(N2N=C(c3ccc(O)cc3)CC2c2ccccc2)cc1 (centres undefined)

- photoluminescence quantum yield (in C1CCCCC1): 0.14
- photoluminescence quantum yield (in CC#N): 0.083
- photoluminescence quantum yield (in CCO): 0.0081
- photoluminescence quantum yield (in c1ccccc1): 0.23
SMILES: CN(C)c1ccc2c(c1)-c1ccccc1C2=O

- photoluminescence quantum yield (in CC#N): 0.095
- photoluminescence quantum yield (in c1ccccc1): 0.077
SMILES: COc1ccc(-c2cc(-c3ccc(OC)cc3)c3c(N)nc(N4CCCC4)c(C#N)c3n2)cc1

- photoluminescence quantum yield (in C1CCCCC1): 0.05
- photoluminescence quantum yield (in C1CCOC1): 0.1
- photoluminescence quantum yield (in CN(C)C=O): 0.13
- photoluminescence quantum yield (in CO): 0.23
- photoluminescence quantum yield (in ClC(Cl)Cl): 0.17
- photoluminescence quantum yield (in c1ccccc1): 0.12
SMILES: CC1(C)CCc2c(c3ccccc3c3nc4ccccc4nc23)O1

- photoluminescence quantum yield (in ClC(Cl)Cl): 0.93
SMILES: COC(=O)c1ccc(C2=C3C(C)=CC(C)=[N+]3[B-](F)(F)n3c(/C=C/c4c[nH]cn4)cc(C)c32)cc1

- photoluminescence quantum yield (in CCO): 0.0089
- photoluminescence quantum yield (in ClCCl): 0.0121
- photoluminescence quantum yield (in O): 0.01
SMILES: N#CC(C#N)=Cc1ccc(-c2ccc(-c3nc4ccccc4s3)c(O)c2)o1

- photoluminescence quantum yield (in CCO): 0.75
SMILES: CN1C(=CC=Cc2nc3nc4ccccc4nc3s2)C(C)(C)c2ccccc21

- photoluminescence quantum yield (in ClC(Cl)Cl): 0.47
SMILES: F[B-]1(F)n2c(cc(Br)c2Br)C(c2ccccc2)=C2C=C(Br)C(c3ccc[nH]3)=[N+]21

- photoluminescence quantum yield (in ClC(Cl)Cl): 0.01
SMILES: CC1=C(/C=C/c2ccccc2)C(C)=[N+]2C1=C(c1ccccc1)c1c(C)c(/C=C/c3ccccc3)c(C)n1[B-]2(F)F

- photoluminescence quantum yield (in CCO): 0.637
SMILES: COc1ccc(C(=O)OCc2c(C)c(=O)n3c(=O)c(C)c(C)n23)cc1

- photoluminescence quantum yield (in C1CCCCC1): 0.8
SMILES: Cc1cc(C)c(B2c3cc(C(C)(C)C)ccc3-c3cccc4cc(C(C)(C)C)cc2c34)c(C)c1

- photoluminescence quantum yield (in CC#N): 0.42
- photoluminescence quantum yield (in CCCCCC): 0.55
- photoluminescence quantum yield (in CCOC(C)=O): 0.44
- photoluminescence quantum yield (in CO): 0.5
- photoluminescence quantum yield (in ClCCl): 0.52
SMILES: F[B-]1(F)n2c(NCc3ccccc3)ccc2C(c2c(Cl)cccc2Cl)=C2C=CC(NCc3ccccc3)=[N+]21

- photoluminescence quantum yield (in ClCCl): 0.61
SMILES: COc1ccc(-c2c3cc4cc(C)sc4cc3c(-c3ccc(OC)cc3)c3cc4cc(C)sc4cc23)cc1
